Where a name gives a salt, the structure may show the parent alone. Read-outs that look alike come from different tables or passages of the source.
What was measured:
[1] = test system: ventricular fibrillation induced by CaCl2; test: Calcium (CaCl2) induced ventricular fibrillation in the anaesthetized rat, Malinow's technique; format: in vivo; conditions: for index LD50/AD50 (ventricular fibrillation): Table 2; for RELATIVE ACTIVITY (ventricular fibrillation): Table 2, relative to cetiedil = 1; for RELATIVE ACTIVITY (death): Table 3, relative to cetiedil = 1
Description: According to MALINOW, M. R., et coll. Acta. Physiol Latino. Americ.
Using the anaesthetized rat, 200 mg/kg of CaCl2 was injected two minutes after the substances to be tested. The ECG was recorded continuously in lead II.

[2] = test system: polymorphous arrhythmias induced by adrenaline petrol-ether; test: Polymorphous arrhythmias induced in the anaesthetised guinea-pig by adrenaline and petrol ether; format: in vivo; conditions: for ED50: Cavia porcellus, ip, read-out: ED50 (dose decreasing by half the duration of the disturbances); for index I = LD50 IV/ED50: Table 1, adrenaline petrol-ether, guinea-pig ED50, mouse LD50; for RELATIVE ACTIVITY: Table 1, relative to cetiedil = 1
Source text: Adrenaline in high dosage is a powerful arrhythmogenic stimulus to a myocardia induced by petrol ether, as recognized in the guinea-pig by LE MARECHAL J., Thesis Doct.

[3] = test system: chloroform-induced ventricular fibrillation; test: Chloroform-induced ventricular fibrillation in the mouse; format: in vivo
Source text: In this technique first described by LAWSON, J. W. in J. Pharm. Exp. Ther. 1968, 160, 22 and Vargaftig, B. B. et al in Eur. J. Pharmacol. 1969, 6, 49, the inhalation of chloroform vapour produced in the mouse apnea followed by ventricular fibrillation.
The mechanism of this technique remains unknown.

in vivo = conditions: mouse, iv
[4] = test system: chloroform-induced ventricular fibrillation; conditions: mouse, chloroform test, IP; other substances from Linee thesis 1975; cited from earlier work
[5] = test system: rabbit cornea oculo-palpebral reflex; format: in vivo; conditions: for TOTAL DEGREE OF ANAESTHESIA FOR 60 minutes: rabbit cornea, 1.00 g./100, HCl salt, total 13 no anaesthesia, 1300 complete; for local anaesthetic effect compared with cetiedil 0.5%: rabbit
Source text: For the purpose of this study, the classical technique of REGNIER J., Thesis Doct. […] This consists of repeating touching of the rabbit cornea until an oculo-palpebral reflex is obtained. It should be noted that […], in common with the reference substances, was used in the form of the HCl Salt.

[6] = test system: isolated guinea-pig atrial; test: Stimulated isolated guinea pig atrial (technique of Dawes); format: cell-based
Source text: (§1) The technique of DAWES (modified by ALLIES ET AL.) was used with the isolated guinea-pig atrial, and the technique of DUCHENE-MARULLAZ, J. Pharmacol. Paris, 1970, 1, 539, in the anaesthetized dog. This method is used to study the permeability of atrio-ventricular conduction, and thus more precisely conduction at the level of Tawara's nod.

rat aortic fragments = test: Contraction of rat aorta fragment induced by potassium depolarisation; format: cell-based; conditions: mean ± SD, potassium depolarisation
Description: Fragments of aorta removed from rats are immersed in survival fluid in the presence of carbogene at 37° C. By modifying the ionic equilibrium of the survival medium, it was possible to study the effects of […] on contraction of the aortic fragments induced by depolarisation with potassium or calcium.

[7] = test system: ventricular tachycardia induced by Ouabain; test: Ouabain induced ventricular tachycardia in the dog (Lucchesi and Hardman); format: in vivo; conditions: at the average effective dose
Source text: The method used is that of […] and HARDMAN, J. Pharmacol. Exp. Ther. 1961, 132, 372-381. Ventricular tachycardia was obtained by the sequential administration of Ouabain until a permanent ventricular tachycardia developed. Following observation of the effect of the substance, the reappearance of this ventricular tachycardia following the injection of insulin was confirmed, thereby showing the persistence within the heart of a toxic dose of Ouabain (Average dose of Ouabain 71.25 γ kg IV).

[8] = test system: atrio-ventricular conduction; test: Atrio-ventricular conduction in the anaesthetized dog (Duchene-Marullaz); format: in vivo
Source text: as §1

[9] = Rattus norvegicus, iv, read-out: AD50 protection against death
[10] = Rattus norvegicus, iv, read-out: AD 50 protection against ventricular fibrillation
[11] = anaesthetized rat, CaCl2 200 mg/kg IV two minutes after substance, read-out: AD 50 protection against ventricular fibrillation
[12] = guinea-pig, urethane 1.2 g/kg IP, substance 5 minutes before intoxication
[13] = mouse, chloroform vapour inhalation, IP, read-out: ED50

Question: With CC[C@H]1[C@@H]2C[C@H]3[C@@H]4N(C)c5ccccc5[C@]45C[C@@H]([C@H]2[C@H]5O)N3[C@@H]1O [Ajmaline] as the molecule, how does the ED50 [1, 9] read?
Answer: The ED50 was greater than 5 mg/kg.

Question: What about the ED50 [1, 10] of the same molecule?
Answer: Its ED50 is 2.25 mg/kg.

Question: What about the “index LD50/AD50 (ventricular fibrillation)” value [1] of the same molecule?
Answer: Its value is 11,56.

Question: What about the “RELATIVE ACTIVITY (ventricular fibrillation)” value [1] of the same molecule?
Answer: The value was 0,62.

Question: What about the protection against death ([1]; rat, dose of 5 mg/kg) of the same molecule?
Answer: The protection against death was “none against death”.

Question: What about the “protection against ventricular fibrillation” value ([1]; rat, dose of 5 mg/kg) of the same molecule?
Answer: The value was “protected all of the animals against ventricular fibrillation”.

Question: And the ED50 [2]?
Answer: Its ED50 is 0.6 mg/kg.

Question: What about the “index I = LD50 IV/ED50” value [2] of the same molecule?
Answer: Its value is 43.33.

Question: And the “RELATIVE ACTIVITY” value [2]?
Answer: Its value is 0.91.

Question: And the ED50 ([3]; Mus musculus, ip)?
Answer: The ED50 was 6.6 mg/kg.

Question: What about the LD50 (in vivo) of the same molecule?
Answer: Its LD50 is 26 mg/kg.

Question: With CN1[C@@H]2CC[C@H]1C[C@@H](OC(=O)C(CO)c1ccccc1)C2 (stereo partly drawn) [Atropine] as the molecule, how does the ED50 [4] read?
Answer: Its ED50 is 100 mg/kg IP.

Question: Which “TOTAL DEGREE OF ANAESTHESIA FOR 60 minutes” value [5] does the source give for COC(=O)[C@H]1[C@@H](OC(=O)c2ccccc2)C[C@@H]2CC[C@H]1N2C [COCAINE] here?
Answer: The value was 706.4.

Question: What about the “local anaesthetic effect compared with cetiedil 0.5%” value ([5]; 1 p.100) of the same molecule?
Answer: The value was “same effect”.

Question: For CC(C)N(CCC(C(N)=O)(c1ccccc1)c1ccccn1)C(C)C (stereo not drawn) [DISOPYRAMIDE], which “% DECREASE SPONTANEOUS RATE” value ([6]; concentration 10^-5) is on record?
Answer: Its value is 8%.

Question: What about the “% DECREASE m.f.s. (maximum frequency followed by the atrial)” value ([6]; concentration 10^-5) of the same molecule?
Answer: Its value is 18%.

Question: What about the “% DECREASE SPONTANEOUS RATE” value ([6]; concentration 10^-6) of the same molecule?
Answer: The value was 6%.

Question: What about the “% DECREASE m.f.s. (maximum frequency followed by the atrial)” value ([6]; concentration 10^-6) of the same molecule?
Answer: Its value is 6%.

Question: Which ED50 [4] does the source give for CN(C)CCCN1c2ccccc2CCc2ccccc21 [Imipramine] here?
Answer: Its ED50 is 30 mg/kg IP.

Question: Which results are given for CCN(CC)CCOC(=O)c1ccc(N)cc1 [PROCAINE]?
Answer: pD'2 (mean) (rat aortic fragments): 2.55 ± 0.06; TOTAL DEGREE OF ANAESTHESIA FOR 60 minutes [5]: 61.5; local anaesthetic effect compared with cetiedil 0.5% ([5]; 1 p.100): only half less active

Question: What does the source list for CCN(CC)CCNC(=O)c1ccc(N)cc1 [Procainamide]?
Answer: ED50 [1, 9]: 17 mg/kg; index LD50/AD50 (ventricular fibrillation) [1]: 7,24; RELATIVE ACTIVITY (ventricular fibrillation) [1]: 0,39; index LD50/AD50 (death) ([1]; Table 3): 6.18; RELATIVE ACTIVITY (death) [1]: 0.38; ED50 [1, 11]: 14.5 mg/kg; ED50 [2, 12]: 1.4 mg/kg; index I = LD50 IV/ED50 [2]: 75.00; RELATIVE ACTIVITY [2]: 1.58; ED50 [3, 13]: 80 mg/kg; LD50 (in vivo): 105 mg/kg

Question: With CC(C)NCC(O)COc1cccc2ccccc12 (stereo not drawn) [Propranolol] as the molecule, how does the “% DECREASE m.f.s. (maximum frequency followed by the atrial)” value ([6]; concentration 10^-6) read?
Answer: Its value is 34%.

Question: What about the “% DECREASE m.f.s. (maximum frequency followed by the atrial)” value ([6]; concentration 10^-7) of the same molecule?
Answer: Its value is 7%.

Question: And the ED50 [1, 9]?
Answer: The ED50 was 3.9 mg/kg.

Question: What about the “RELATIVE ACTIVITY (ventricular fibrillation)” value [1] of the same molecule?
Answer: The value was 0,36.

Question: And the “RELATIVE ACTIVITY (death)” value [1]?
Answer: The value was 0.35.

Question: What about the ED50 [1, 11] of the same molecule?
Answer: Its ED50 is 3.25 mg/kg.

Question: What about the “TOTAL DEGREE OF ANAESTHESIA FOR 60 minutes” value [5] of the same molecule?
Answer: The value was 876.5.

Question: And the “local anaesthetic effect compared with cetiedil 0.5%” value ([5]; in vivo)?
Answer: The value was “same effect”.

Question: And the ED50 [2, 12]?
Answer: The ED50 was 0.38 mg/kg.

Question: What about the “RELATIVE ACTIVITY” value [2] of the same molecule?
Answer: Its value is 1.22.

Question: With C=C[C@H]1C[N@@]2CC[C@H]1C[C@@H]2[C@@H](O)c1ccnc2ccc(OC)cc12 [Quinidine sulfate, reference compound] as the molecule, how does the “duration of return to sinus rhythm” value [7] read?
Answer: Its value is “less than 30 min”.

Question: With C=C[C@H]1C[N@@]2CC[C@H]1C[C@@H]2[C@@H](O)c1ccnc2ccc(OC)cc12 [Quinidine] as the molecule, how does the “% DECREASE SPONTANEOUS RATE” value ([6]; concentration 10^-5) read?
Answer: Its value is 15%.

Question: What about the “% DECREASE m.f.s. (maximum frequency followed by the atrial)” value ([6]; concentration 10^-5) of the same molecule?
Answer: The value was 25%.

Question: What about the “% DECREASE SPONTANEOUS RATE” value ([6]; concentration 10^-6) of the same molecule?
Answer: Its value is 3%.

Question: And the “% DECREASE m.f.s. (maximum frequency followed by the atrial)” value ([6]; concentration 10^-6)?
Answer: The value was 10%.

Question: And the “% DECREASE SPONTANEOUS RATE” value ([6]; concentration 10^-7)?
Answer: Its value is 0%.

Question: And the ED50 [1, 9]?
Answer: Its ED50 is 8 mg/kg.

Question: And the ED50 [1, 10]?
Answer: The ED50 was 5.5 mg/kg.

Question: What about the “effect on atrio-ventricular conduction after denervation” value ([8]; anaesthetized dog, denervated) of the same molecule?
Answer: The value was “Depression of atrio-ventricular conduction is significant and proportional to the dose administered”.

Question: And the “effect on atrio-ventricular conduction” value ([8]; anaesthetized dog, intact)?
Answer: The value was “not changed in the intact animal”.

Question: What about the chronotropic effect ([8]; dog) of the same molecule?
Answer: The chronotropic effect was “positive or negative action according to whether the dog is intact or denervated”.

Question: What about the ED50 [3, 13] of the same molecule?
Answer: The ED50 was 26 mg/kg.

Question: What about the LD50 (in vivo) of the same molecule?
Answer: Its LD50 is 67 mg/kg.

Question: With COC(=O)[C@@H]1[C@H]2C[C@H]3c4[nH]c5ccccc5c4CCN3C[C@@H]2CC[C@@H]1O [Yohimbine] as the molecule, how does the ED50 [4] read?
Answer: The ED50 was 10 mg/kg IP.
